Results: US20190076384A1, “METHODS FOR TREATING UREA CYCLE DISORDERS” (priority 2017, published 2019)
Like-named read-outs stand apart in the source and are kept apart here.

Columns and labels:
[1] = target: Cytochrome P450 3A4 (Homo sapiens, UniProt P08684); assay: clinical; details: for overall 1′-OH-midazolam exposure (based on AUC) increased by: free+conjugates
Procedure: (§1) Methodology: This was a Phase 1, open-label, monosequence crossover, drug-drug interaction study of RAVICTI® and midazolam in healthy male and female subjects.
(§2) Single doses of midazolam HCl syrup (2 mg/mL) were administered in the morning following an approximate 10-hour fast on Days 1 and 5 (coadministered with RAVICTI® on Day 5) just prior to administration of breakfast (˜5 minutes before breakfast).
(§3) Pharmacokinetics: Blood samples for the analysis of plasma midazolam and its metabolite (1′-OH-midazolam, free+conjugates) levels were collected via an indwelling catheter and/or via direct venipuncture. Blood samples were collected on Days 1 and 5 at the following time points: predose, 0.5, 1, 2, 3, 4, 6, 8, 10, 12, 16, and 24 hours postdose. In addition, five plasma PK samples for GPB analysis were collected on Day 4 at the following time points: at 1 minute, 30 minutes, and 1 hour following the first morning dose of RAVICTI; at 30 minutes and 1 hour post second dose of RAVICTI.
(§4) Pharmacokinetics: The possible drug-drug interaction was examined between coadministration of RAVICTI and midazolam (test) and midazolam administered alone (reference). An analysis of variance (ANOVA), with treatment as a fixed effect and subject as a random effect, was performed. Data for Cmax, AUC0-t, and AUC0-∞, as appropriate, were natural log (ln)-transformed prior to analysis. The 90% confidence intervals (CIs) of the test group means relative to the reference group means were obtained by taking the antilog of the corresponding 90% CIs for the differences between the means on the log scale, i.e., ratio of geometric least-squares (LS) means.

[2] = target: T1, CYP2C9 (Homo sapiens, UniProt P11712); assay: clinical; details: both, human, plasma, oral, 200 mg
T1 sequence (P11712 whole entry): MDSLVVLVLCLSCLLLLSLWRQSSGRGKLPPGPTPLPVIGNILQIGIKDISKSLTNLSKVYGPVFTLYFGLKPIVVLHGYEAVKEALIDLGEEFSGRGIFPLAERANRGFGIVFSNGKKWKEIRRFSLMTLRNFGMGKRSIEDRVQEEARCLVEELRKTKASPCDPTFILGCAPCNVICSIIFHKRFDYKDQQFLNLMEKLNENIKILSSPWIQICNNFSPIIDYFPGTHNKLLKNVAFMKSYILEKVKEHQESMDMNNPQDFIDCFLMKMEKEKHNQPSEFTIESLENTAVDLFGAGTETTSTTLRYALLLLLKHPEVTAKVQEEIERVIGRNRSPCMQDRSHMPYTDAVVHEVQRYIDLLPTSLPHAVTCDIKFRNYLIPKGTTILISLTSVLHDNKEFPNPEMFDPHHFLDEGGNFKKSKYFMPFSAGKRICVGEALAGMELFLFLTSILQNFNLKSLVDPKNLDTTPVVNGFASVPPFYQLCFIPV
Procedure: (§5) Methodology: This was an open-label, 2-period, monosequence crossover, drug-drug interaction (DDI) study of RAVICTI and celecoxib in healthy male and female subjects.
(§6) Test Product, Dose, Duration, and Mode of Administration: In Treatment A (Period 1), subjects received 200 mg celecoxib (1×200 mg capsule) administered orally with approximately 240 mL of water following an overnight fast and approximately 5 minutes prior to the start of a standard breakfast on Day 1.
(§7) Pharmacokinetics: Blood samples (4 mL) for the analysis of plasma celecoxib were collected on Days 1 (Period 1) and 4 (Period 2) at the following time points: predose (Hour 0) and 1, 2, 3, 4, 6, 8, 12, 16, 24, 36, 48, 60, and 72 hours postdose. A blood sample (6 mL) for CYP2C9 genotyping was collected at screening to exclude any subjects with a slow metabolizer genotype (i.e., CYP2C9*2/*2, CYP2C9*2/*3, CYP2C9*1/*3, and CYP2C9*3/*3). PK parameters for celecoxib in plasma were computed following Day 1 (Period 1) and Day 4 (Period 2) blood draws and included AUC0-t, AUC0-inf, AUC%extr, Cmax, tmax, t1/2, kel, and CL/F.
(§8) Pharmacokinetics: The possible DDI was examined between co-administration of RAVICTI and celecoxib (Treatment B, test) and celecoxib administered alone (Treatment A, reference). An analysis of variance (ANOVA) was performed with treatment as a fixed effect and subject as a random effect. Data for AUC0-t, AUC0-inf, and Cmax, as appropriate, were ln-transformed prior to analysis. The 90% confidence intervals (CIs) of the test group means relative to the reference group means were obtained by taking the antilog of the corresponding 90% CIs for the differences between the means on the log scale, i.e., ratio of geometric least-squares (LS) means.

[3] = target: Cytochrome P450 2C9 (Homo sapiens, UniProt P11712); assay: clinical; details: 200 mg celecoxib with RAVICTI 4 mL three times a day for 6 days, fed conditions
Chain of Cytochrome P450 2C9 (P11712 whole entry): as above
Procedure: as §5, §6, §7, §8

[4] = target: CYP3A4 (Homo sapiens, UniProt P08684); assay: clinical; details: both, human, in vivo, 3 mg
Chain of CYP3A4 (P08684 whole entry): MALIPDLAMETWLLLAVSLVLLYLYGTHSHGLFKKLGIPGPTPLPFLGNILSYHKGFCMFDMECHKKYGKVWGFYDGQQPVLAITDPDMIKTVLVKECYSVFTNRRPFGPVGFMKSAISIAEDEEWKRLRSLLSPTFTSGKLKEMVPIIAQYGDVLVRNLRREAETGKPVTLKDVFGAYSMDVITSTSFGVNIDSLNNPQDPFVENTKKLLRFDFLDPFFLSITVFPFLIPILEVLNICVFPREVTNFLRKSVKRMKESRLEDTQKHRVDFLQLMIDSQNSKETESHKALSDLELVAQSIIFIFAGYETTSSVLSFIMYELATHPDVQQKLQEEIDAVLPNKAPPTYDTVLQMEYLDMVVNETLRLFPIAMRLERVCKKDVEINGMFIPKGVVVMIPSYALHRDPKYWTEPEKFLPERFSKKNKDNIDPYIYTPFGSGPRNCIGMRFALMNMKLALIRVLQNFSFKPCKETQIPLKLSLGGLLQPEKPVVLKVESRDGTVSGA
Procedure: as §1, §2, §3, §4

[5] = target: T2, CYP1A2 (Homo sapiens, UniProt P05177); format: in vitro ADME; details: for % Inhibition: 7-ethoxyresorufin-O-deethylase
T2 construct: from tissue; host or cells: human liver microsomes
T2 sequence (P05177 1-516): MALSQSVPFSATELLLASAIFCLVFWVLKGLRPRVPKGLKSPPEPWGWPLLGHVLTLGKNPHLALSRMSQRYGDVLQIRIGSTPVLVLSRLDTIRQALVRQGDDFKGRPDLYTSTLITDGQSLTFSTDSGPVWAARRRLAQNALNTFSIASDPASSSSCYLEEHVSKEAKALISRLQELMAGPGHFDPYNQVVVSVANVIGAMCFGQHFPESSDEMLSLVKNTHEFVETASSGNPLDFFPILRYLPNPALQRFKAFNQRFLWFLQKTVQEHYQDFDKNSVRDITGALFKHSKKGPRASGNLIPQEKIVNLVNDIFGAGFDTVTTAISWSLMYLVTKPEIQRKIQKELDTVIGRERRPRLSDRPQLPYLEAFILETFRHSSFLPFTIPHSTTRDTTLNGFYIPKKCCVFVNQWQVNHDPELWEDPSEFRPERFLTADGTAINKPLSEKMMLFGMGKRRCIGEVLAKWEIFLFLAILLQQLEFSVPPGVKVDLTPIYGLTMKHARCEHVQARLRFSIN

[6] = target: T3, CYP2C8 (Homo sapiens, UniProt P10632); assay: In vitro CYP inhibition study, human liver microsomes, CYP2C8; format: in vitro ADME; details: for % Inhibition: Taxol 6α-hydroxylase
T3 construct: from tissue; host or cells: human liver microsomes
T3 sequence (P10632 1-490): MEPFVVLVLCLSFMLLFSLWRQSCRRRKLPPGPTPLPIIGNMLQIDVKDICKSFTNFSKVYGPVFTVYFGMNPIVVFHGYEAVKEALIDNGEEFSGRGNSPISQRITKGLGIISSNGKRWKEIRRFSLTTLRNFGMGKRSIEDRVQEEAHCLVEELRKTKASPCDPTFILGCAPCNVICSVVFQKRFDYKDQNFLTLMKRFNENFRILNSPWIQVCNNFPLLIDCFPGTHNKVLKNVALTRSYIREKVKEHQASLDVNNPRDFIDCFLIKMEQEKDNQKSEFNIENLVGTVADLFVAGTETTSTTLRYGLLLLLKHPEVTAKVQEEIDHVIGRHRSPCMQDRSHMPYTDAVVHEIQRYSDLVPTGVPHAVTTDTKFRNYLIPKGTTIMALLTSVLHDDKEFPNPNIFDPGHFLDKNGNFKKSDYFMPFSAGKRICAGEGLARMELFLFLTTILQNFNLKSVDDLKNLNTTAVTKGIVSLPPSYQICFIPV

[7] = target: T4, CYP2C19 (Homo sapiens, UniProt P33261); format: in vitro ADME; details: for % Inhibition: S-Mephenytoin 4′-hydroxylase
T4 construct: from tissue; host or cells: human liver microsomes
T4 sequence (P33261 whole entry): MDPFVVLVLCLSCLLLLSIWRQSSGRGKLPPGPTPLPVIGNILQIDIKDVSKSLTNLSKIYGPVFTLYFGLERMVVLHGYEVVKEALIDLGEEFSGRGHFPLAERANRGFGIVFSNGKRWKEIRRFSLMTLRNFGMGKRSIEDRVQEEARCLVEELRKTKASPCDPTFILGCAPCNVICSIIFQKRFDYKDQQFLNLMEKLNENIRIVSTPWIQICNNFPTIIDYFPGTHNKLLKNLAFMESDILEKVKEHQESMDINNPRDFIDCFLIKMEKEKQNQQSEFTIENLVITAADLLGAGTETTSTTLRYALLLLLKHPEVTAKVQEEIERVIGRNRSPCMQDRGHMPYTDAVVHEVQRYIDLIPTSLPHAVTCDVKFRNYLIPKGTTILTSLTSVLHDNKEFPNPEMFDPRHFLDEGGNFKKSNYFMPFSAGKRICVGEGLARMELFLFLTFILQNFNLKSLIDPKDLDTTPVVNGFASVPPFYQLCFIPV

[8] = tested on: CYP3A4/5; format: in vitro ADME, human
[9] = target: T1, CYP2C9; details: for % Inhibition: Diclofenac 4′-hydroxylase, 20.7 mM (2.818 mg/ml)
[10] = target: CYP2D6 (Homo sapiens, UniProt P10635); details: for % Inhibition: Bufuralol 1′-hydroxylase, 20.7 mM (2.818 mg/ml)
Chain of CYP2D6 (P10635 whole entry): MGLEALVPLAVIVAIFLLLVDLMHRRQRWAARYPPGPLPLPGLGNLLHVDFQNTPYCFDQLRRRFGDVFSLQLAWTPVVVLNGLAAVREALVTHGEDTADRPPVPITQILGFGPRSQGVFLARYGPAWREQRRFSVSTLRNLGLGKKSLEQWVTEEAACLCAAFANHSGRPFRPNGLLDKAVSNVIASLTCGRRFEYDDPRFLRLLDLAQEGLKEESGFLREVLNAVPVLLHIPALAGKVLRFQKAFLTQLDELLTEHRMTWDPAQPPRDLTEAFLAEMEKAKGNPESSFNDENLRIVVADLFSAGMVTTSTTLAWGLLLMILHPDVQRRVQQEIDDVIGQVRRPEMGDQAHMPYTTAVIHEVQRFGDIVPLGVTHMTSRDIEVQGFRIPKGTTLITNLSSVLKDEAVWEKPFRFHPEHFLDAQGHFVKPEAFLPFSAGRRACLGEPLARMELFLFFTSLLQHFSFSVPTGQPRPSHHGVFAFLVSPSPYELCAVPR

[11] = tested on: CYP3A4/5; assay: Induction of CYP3A4/5 in cultured human hepatocytes; details: for Relative potency (%): PAA 20.7 mM; for Fold induction: PAA 20.7 mM (concentration of maximum fold induction)
[12] = target: T1, CYP2C9; assay: In vitro CYP inhibition study, human liver microsomes, CYP2C9
[13] = tested on: CYP3A4/5
[14] = Mean peak concentration of PBA and PAA in different patient populations
[15] = after RAVICTI 4 mL three times a day for 3 days, fed conditions, healthy subjects
[16] = upon coadministration with multiple-dose RAVICTI
[17] = 20.7 mM (2.818 mg/ml), pre-incubation time 0 min
[18] = 20.7 mM (2.818 mg/ml), pre-incubation time 30 min
[19] = at a concentration higher than the observed plasma concentrations
[20] = 5 mM, pre-incubation time 0 min
[21] = 5 mM, pre-incubation time 30 min

Chain of Cytochrome P450 3A4 (P08684 whole entry): as the sequence (P08684 whole entry) above

With OCc1ncc2n1-c1ccc(Cl)cc1C(c1ccccc1F)=NC2 [1′-OH-midazolam] the “mean AUC for 1-hydroxy midazolam higher than midazolam alone” value [1, 15] was 58%, the “mean Cmax for 1-hydroxy midazolam higher than midazolam alone” value [1, 15] was 28% and the “1′-OH-midazolam Cmax (peak exposure) increased by” value [1, 16] was 28%. For the same molecule, the “overall 1′-OH-midazolam exposure (based on AUC) increased by” value [1, 16] was “approximately 60%” and the “overall 1′-OH-midazolam exposure (based on AUC) increased by” value ([1]; upon coadministration with multiple-dose RAVICTI, listed as 1′-hydroxy-midazolam) was 60%.

In the case of Cc1ccc(-c2cc(C(F)(F)F)nn2-c2ccc(S(N)(=O)=O)cc2)cc1 [Celecoxib, celecoxib], the AUC(0-inf) [2] is reported as 5440 ng·h/mL, the AUC(0-t) [2] is reported as 5170 ng·h/mL and the Cmax [2] is reported as 620 ng/mL. For the same molecule, the “mean AUC for celecoxib lower than celecoxib alone” value [3] was 8% and the “mean Cmax for celecoxib lower than celecoxib alone” value [3] was 13%.

Cc1ncc2n1-c1ccc(Cl)cc1C(c1ccccc1F)=NC2 [Midazolam, midazolam] gave an AUC(0-inf) [4] of 67 ng·h/mL, an AUC(0-t) [4] of 64.7 ng·h/mL and a Cmax [4] of 16.8 ng/mL. The “mean AUC for midazolam lower than midazolam alone” value [1, 15] was 32%, the “mean Cmax for midazolam lower than midazolam alone” value [1, 15] was 25% and the “midazolam overall exposure reduced by” value [1, 16] was ~32%. The “midazolam peak exposure reduced by” value [1, 16] was “approximately 26%” and the “midazolam peak exposure reduced by” value ([1]; upon coadministration with multiple-dose RAVICTI, listed as midazolam) was 26%.

In the case of phenylacetate [PAA], the “% Inhibition” value [5, 17] is reported as 58%, the “% Inhibition” value [5, 18] is reported as 47% and the “inhibition of CYP1A2 (in words)” value ([5]; at 20.7 mM) is reported as “inhibited”. For the same molecule, the “% Inhibition” value [6, 17] was 50%, the “% Inhibition” value [6, 18] was 49% and the “inhibition of CYP2C8 (in words)” value ([6]; at 20.7 mM) was “inhibited”. For the same molecule, the “% Inhibition” value [7, 17] was 37%, the “% Inhibition” value [7, 18] was 37% and the “inhibition of CYP2C19 (in words)” value ([7]; at 20.7 mM) was “inhibited”. The “% Inhibition” value ([8]; Midazolam 1′-hydroxylase, 20.7 mM (2.818 mg/ml), pre-incubation time 0 min) was 63%, the “% Inhibition” value ([8]; Midazolam 1′-hydroxylase, 20.7 mM (2.818 mg/ml), pre-incubation time 30 min) was 65% and the “% Inhibition” value ([8]; Testosterone 6β-hydroxylase, 20.7 mM (2.818 mg/ml), pre-incubation time 0 min) was 60%. The “% Inhibition” value ([8]; Testosterone 6β-hydroxylase, 20.7 mM (2.818 mg/ml), pre-incubation time 30 min) was 63%, the “inhibition of CYP3A4/5 (in words)” value ([8]; at 20.7 mM) was “inhibited” and the “effect on CYP3A4 (in words)” value [8, 19] was “inhibitory effect”. For the same molecule, the “% Inhibition” value ([9]; pre-incubation time 0 min) was 47%, the “% Inhibition” value ([9]; pre-incubation time 30 min) was 44% and the “inhibition of CYP2C9 (in words)” value ([9]; at 20.7 mM) was “inhibited”. The “effect on CYP2C9 (in words)” value [9, 19] was “inhibitory effect”, the “[I]/Ki ratio, CYP2C9” value ([9]; based on mean peak PAA concentration in UCD patients) was < 0.1 and the “% Inhibition” value ([10]; pre-incubation time 0 min) was 49%. The “% Inhibition” value ([10]; pre-incubation time 30 min) was 57%, the “inhibition of CYP2D6 (in words)” value ([10]; at 20.7 mM) was “inhibited” and the “induction of CYP3A4/5” value ([11]; cultured human hepatocytes, PAA) was < 1.8 fold. The “Relative potency (%)” value ([11]; donor Hu0793) was 13.1%, the Fold induction ([11]; donor Hu0793) was 1.4 fold and the “Relative potency (%)” value ([11]; donor Hu4156) was 18.2%. The Fold induction ([11]; donor Hu4156) was 1.7 fold and the Ki [12] was 15.1 mM.

With phenylbutyrate [PBA] the “inhibition of CYP1A2 (in words)” value ([5]; 5 mM (0.821 mg/ml)) was “did not inhibit”, the “% Inhibition” value [5, 20] was 6% and the “% Inhibition” value [5, 21] was 2%. For the same molecule, the “inhibition of CYP2C8 (in words)” value ([6]; 5 mM (0.821 mg/ml)) was “did not inhibit”, the “% Inhibition” value [6, 20] was 24% and the “% Inhibition” value [6, 21] was 27%. For the same molecule, the “inhibition of CYP2C19 (in words)” value ([7]; 5 mM (0.821 mg/ml)) was “did not inhibit”, the “% Inhibition” value [7, 20] was 26% and the “% Inhibition” value [7, 21] was 19%. The “% Inhibition” value ([8]; Testosterone 6β-hydroxylase, 5 mM, pre-incubation time 0 min) was 80%, the “% Inhibition” value ([8]; Testosterone 6β-hydroxylase, 5 mM, pre-incubation time 30 min) was 85% and the “extent of induction lower compared to the positive control (rifampicin)” value [13] was “about 50%”. The “PBA Mean peak concentration” value ([14]; Cirrhotic - HE 9 ml BID) was 0.1412 mg/mL, the “PBA Mean peak concentration” value ([14]; Healthy volunteer) was 0.037 mg/mL and the “PBA Mean peak concentration” value ([14]; UCD adult) was 0.0701 mg/mL. For the same molecule, the “PBA Mean peak concentration” value ([14]; UCD pediatric) was 0.0956 mg/mL.
